Values quoted from earlier work as cited in patent publication US20130137781A1, “PHARMACEUTICAL PREPARATION FOR CONTROLLING WATER-SOLUBLE DRUG RELEASE” (priority 2010, published 2013).

Columns and labels:
[1] = common logarithm of n-octanol/water partition coefficient

| Compound | Log P [1] | thermal stability in solution state |
| --- | --- | --- |
| N[C@H](C(=O)O)[C@H](O)c1ccc(O)c(O)c1 [droxidopa] | −3.2 | thermally unstable in solution state |
| N[C@@H](Cc1ccccc1)C(=O)O [L-phenylalanine] | −1.5 |  |
| NS(=O)(=O)Cc1noc2ccccc12 [zonisamide] | 0.2 |  |
